Source: PubChem BioAssay AID328 (DTP/NCI, 2004)
Inconclusive results and toxic doses are left out.

Columns and labels:
[1] = tested on: BDF1 mice, P388 leukemia ip; assay: NCI In Vivo Anticancer Drug Screen. Data for tumor model P388 Leukemia (intraperitoneal) in B6D2F1 (BDF1) mice; settings: endpoint: mean survival time, higher = longer survival
Method in brief: (§1)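 T/C = treated-group survival ÷ vehicle-control survival; tumour transplanted into mice before dosing.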

[2] = tested on: BDF1 mice, P388 leukemia ip, median survival T/C; assay: as above; settings: endpoint: median survival time, schedule: Q01DX010 (ip), vehicle: other, higher = longer survival
Method in brief: as §1

`C/C=C/c1cc2c(c(=O)o1)C(=O)[C@@H](O)[C@H](C)O2` was tested, and the T/C ([1]; dose: 25.0 mg/kg/injection, schedule: Q01DX010 (ip), vehicle: carboxymethylcellulose (CMC)) was 119 % of control, the T/C ([2]; dose: 11.0 mg/kg/injection) was 120 % of control and the T/C ([2]; dose: 25.0 mg/kg/injection) was 154 % of control. The T/C ([2]; dose: 50.0 mg/kg/injection) was 150 % of control and the T/C ([2]; dose: 100.0 mg/kg/injection) was 150 % of control.

In the case of `CCOC(CN(Cc1ccc(OCc2ccccc2)c(OC)c1)S(=O)(=O)c1ccc(C)cc1)OCC`, the T/C ([1]; dose: 25.0 mg/kg/injection, schedule: Q01DX009 (ip), vehicle: water) is reported as 93 % of control, the T/C ([1]; dose: 50.0 mg/kg/injection, schedule: Q01DX009 (ip), vehicle: water) is reported as 97 % of control and the T/C ([1]; dose: 100.0 mg/kg/injection, schedule: Q01DX009 (ip), vehicle: water) is reported as 93 % of control. The T/C ([1]; dose: 200.0 mg/kg/injection, schedule: Q01DX009 (ip), vehicle: water) was 90 % of control.

For `CC1(C)C(=O)C(O)=C[C@H]2C1=CC[C@@H]1[C@]2(C)C(=O)C[C@]2(C)[C@@H]([C@@](C)(O)C(=O)CC(O)C(C)(C)O)C(O)C[C@@]12C` (stereo not given in full), the T/C ([1]; dose: 18.0 mg/kg/injection, schedule: Q01DX010 (ip), vehicle: carboxymethylcellulose (CMC)) was 99 % of control.
